According to patent publication US10189854B2, “Substituted pyrimidine compounds” (Grünenthal GmbH, priority 2014, dated 2019):

Biological target: human PDE4B1 (Homo sapiens (Human), UniProt Q07343)
Assay: cAMP HTRF assay to determine the activity of hPDE4B1
Format: biochemical
Conditions: IC50 inhibition of PDE4B; human recombinant PDE4B1, cAMP HTRF assay
Procedure, shortened: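 Recombinant human PDE4B1 expressed in Sf9 cells (4.8 U) was incubated with 40 nM cAMP for 30 min at room temperature in Tris buffer, pH 7.8, with MgCl2, DTT and Tween 20. HTRF detection of remaining cAMP followed, with 1 mM IBMX stop, read 60 min later as the 665/620 nm ratio. Results are % inhibition versus control.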

Chain of human PDE4B1 (Q07343 whole entry): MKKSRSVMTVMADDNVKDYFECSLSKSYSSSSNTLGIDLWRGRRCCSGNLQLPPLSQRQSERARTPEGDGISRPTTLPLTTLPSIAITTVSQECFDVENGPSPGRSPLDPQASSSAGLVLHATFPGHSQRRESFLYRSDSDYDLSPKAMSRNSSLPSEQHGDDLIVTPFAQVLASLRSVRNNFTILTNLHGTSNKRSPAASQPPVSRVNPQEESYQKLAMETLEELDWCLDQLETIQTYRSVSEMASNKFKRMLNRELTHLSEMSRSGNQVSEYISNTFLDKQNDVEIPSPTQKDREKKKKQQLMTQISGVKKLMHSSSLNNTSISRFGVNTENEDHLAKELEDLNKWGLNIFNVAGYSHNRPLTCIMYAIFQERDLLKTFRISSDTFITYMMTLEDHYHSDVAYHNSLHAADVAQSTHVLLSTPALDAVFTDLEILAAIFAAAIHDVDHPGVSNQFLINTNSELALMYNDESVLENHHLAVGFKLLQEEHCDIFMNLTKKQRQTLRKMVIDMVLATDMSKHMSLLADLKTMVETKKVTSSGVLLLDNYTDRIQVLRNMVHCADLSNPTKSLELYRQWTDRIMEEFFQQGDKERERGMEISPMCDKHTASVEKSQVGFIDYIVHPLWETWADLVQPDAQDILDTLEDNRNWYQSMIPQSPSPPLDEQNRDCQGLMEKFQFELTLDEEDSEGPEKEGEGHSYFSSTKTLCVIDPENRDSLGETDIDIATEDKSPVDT

| Compound | IC50 |
| --- | --- |
| N#Cc1ccccc1-c1cnc(N2CC3(CC3)c3ccc(C(=O)N4CCOCC4)cc32)nc1 [Compound 18, 2-[2-[6-(Morpholine-4-carbonyl)-spiro[1,2-dihydro-indole-3,1′-cyclopropane]-1-yl]-pyrimidin-5-yl]-benzonitrile] | 0.1 to 1 µM |
| COc1ccnc(-c2cnc(N3CC4(CC4)c4ccc(C(=O)N5CCOCC5)cc43)nc2)c1 [Compound 182, [1-[5-(4-Methoxy-pyridin-2-yl)-pyrimidin-2-yl]-spiro[1,2-dihdyro-indole-3,1′-cyclopropane]-6-yl]-morpholin-4-yl-methanone] | < 0.1 µM |
| [1-[5-(6-Fluoro-pyrimidin-4-yl)-pyrimidin-2-yl]-spiro[1,2-dihydro-indole-3,1′-cyclopropane]-6-yl]-morpholin-4-yl-methanone [Compound 205] | < 0.1 µM |
| Cn1ccc(-c2cnc(N3CC4(CC4)c4ccc(C(=O)N5CC[C@@H](N)C5)cc43)nc2)c1 [Compound 172, [(3R)-3-Amino-pyrrolidin-1-yl]-[1-[5-(1-methyl-1H-pyrrol-3-yl)-pyrimidin-2-yl]-spiro[1,2-dihydro-indole-3,1′-cyclopropane]-6-yl]-methanone] | < 0.1 µM |
| Cn1cccc1-c1cnc(N2CC3(CC3)c3ccc(C(=O)N4CCOCC4)cc32)nc1 [Compound 141, [1-[5-(1-Methyl-1H-pyrrol-2-yl)-pyrimidin-2-yl]-spiro[1,2-dihydro-indole-3,1′-cyclopropane]-6-yl]-morpholin-4-yl-methaone] | < 0.1 µM |
| CN(C)C(=O)c1ccc2c(c1)N(c1ncc(-c3cccnc3F)cn1)CC21CC1 [Compound 174, 1-[5-(2-Fluoro-pyridin-3-yl)-pyrimidin-2-yl]-N,N-dimethyl-spiro[1,2-dihydro-indole-3,1′-cyclopropane]-6-carboxylic acid amide] | < 0.1 µM |
| O=C(c1ccc2c(c1)N(c1ncc(-c3ccccc3F)cn1)CC21CC1)N1CCC2(COC2)C1 [Compound 68, [1-[5-(2-Fluorophenyl)-pyrimidin-2-yl]-spiro[1,2-dihydro-indole-3,1′-cyclopropane]-6-yl]-(2-oxa-7-azaspiro[3.4]octan-7-yl)-methanone] | 0.1 to 1 µM |
| O=C(c1ccc2c(c1)N(c1ncc(-c3ccc(F)cc3F)cn1)CC21CC1)N1CCOCC1 [Compound 8, [1-[5-(2,4-Difluoro-phenyl)-pyrimidin-2-yl]-spiro[1,2-dihydro-indole-3,1′-cyclopropane]-6-yl]-morpholin-4-yl-methanone] | < 0.1 µM |
| NC(=O)C1CCN(C(=O)c2ccc3c(c2)N(c2ncc(-c4ccccc4F)cn2)CC32CC2)CC1 [Compound 216, 1-[1-[5-(2-Fluorophenyl)-pyrimidin-2-yl]-spiro[1,2-dihydro-indole-3,1′-cyclopropane]-6-carbonyl]-piperidine-4-carboxylic acid amide] | 1 to 10 µM |
| [1-[5-(6-Methyl-pyridin-2-yl)-pyrimidin-2-yl]-spiro[1,2-dihydro-indole-3,1′-cyclopropane]-6-yl]-morpholin-4-yl-methanone [Compound 186] | < 0.1 µM |
| N#Cc1ccc(F)c(-c2cnc(N3CC4(CC4)c4ccc(C(=O)N5CCNCC5)cc43)nc2)c1 [Compound 109, 4-Fluoro-3-[2-[6-(piperazine-1-carbonyl)-spiro[1,2-dihydro-indole-3,1′-cyclopropane]-1-yl]-pyrimidin-5-yl]-benzonitrile] | < 0.1 µM |
| O=C(c1ccc2c(c1)N(c1ncc(-c3ccccc3F)cn1)CC21CC1)N1CCCCC1CO (stereo not drawn) [Compound 97, [1-[5-(2-Fluorophenyl)-pyrimidin-2-yl]-spiro[1,2-dihydro-indole-3,1′-cyclopropane]-6-yl]-[2-(hydroxymethyl)-piperidin-1-yl]-methanone] | 1 to 10 µM |
| O=C(c1ccc2c(c1)N(c1ncc(-c3c(F)cccc3C(F)(F)F)cn1)CC21CC1)N1CCOCC1 [Compound 24, [1-[5-[2-Fluoro-6-(trifluoromethyl)-phenyl]-pyrimidin-2-yl]-spiro[1,2-dihydro-indole-3,1′-cyclopropane]-6-yl]-morpholin-4-yl-methanone] | 1 to 10 µM |
| O=C(c1ccc2c(c1)N(c1ncc(-c3sccc3Cl)cn1)CC21CC1)N1CCOCC1 [Compound 133, [1-[5-(3-Chloro-thiophen-2-yl)-pyrimidin-2-yl]-spiro[1,2-dihydro-indole-3,1′-cyclopropane]-6-yl]-morpholin-4-yl-methanone] | 0.1 to 1 µM |
| CN(C)C(=O)c1ccc2c(c1)N(c1ncc(-c3ccccc3)cn1)CC21CC1 [Compound 124, N,N-Dimethyl-1-(5-phenyl-pyrimidin-2-yl)-spiro[1,2-dihydro-indole-3,1′-cyclopropane]-6-carboxylic acid amide] | < 0.1 µM |
| N[C@@H]1CCN(C(=O)c2ccc3c(c2)N(c2ncc(-c4ccccc4)cn2)CC32CC2)C1 [Compound 108, [(3R)-3-Amino-pyrrolidin-1-yl]-[1-(5-phenyl-pyrimidin-2-yl)-spiro[1,2-dihydro-indole-3,1′-cyclopropane]-6-yl]methanone] | < 0.1 µM |
| O=C(c1ccc2c(c1)N(c1ncc(-c3ccc(F)c(F)c3)cn1)CC21CC1)N1CCOCC1 [Compound 53, [1-[5-(3,4-Difluoro-phenyl)-pyrimidin-2-yl]-spiro[1,2-dihydro-indole-3,1′-cyclopropane]-6-yl]-morpholin-4-yl-methanone] | 0.1 to 1 µM |
| 4-[1-[5-(3-Fluorophenyl)-pyrimidin-2-yl]-spiro[1,2-dihydro-indole-3,1′-cyclopropane]-6-carbonyl]-piperazin-2-one [Compound 188] | < 0.1 µM |
| CN(CCO)C(=O)c1ccc2c(c1)N(c1ncc(-c3ccccc3F)cn1)CC21CC1 [Compound 95, 1-[5-(2-Fluorophenyl)-pyrimidin-2-yl]-N-(2-hydroxy-ethyl)-N-methyl-spiro[1,2-dihydro-indole-3,1′-cyclopropane]-6-carboxylic acid amide] | < 0.1 µM |
| Cn1cc(-c2cnc(N3CC4(CC4)c4ccc(C(=O)N5CCOCC5)cc43)nc2)cn1 [Compound 138, [1-[5-(1-Methyl-1H-pyrazol-4-yl)-pyrimidin-2-yl]-spiro[1,2-dihydro-indole-3,1′-cyclopropane]-6-yl]-morpholin-4-yl-methanone] | < 0.1 µM |
| O=C(O)C1CCN(C(=O)c2ccc3c(c2)N(c2ncc(-c4ccccc4F)cn2)CC32CC2)CC1 [Compound 215, 1-[1-[5-(2-Fluorophenyl)-pyrimidin-2-yl]-spiro[1,2-dihydro-indole-3,1′-cyclopropane]-6-carbonyl]-piperidine-4-carboxylic acid] | 1 to 10 µM |
| N#Cc1ccc(-c2cnc(N3CC4(CC4)c4ccc(C(=O)N5CCOCC5)cc43)nc2)c(F)c1 [Compound 30, 3-Fluoro-4-[2-[6-(morpholine-4-carbonyl)-spiro[1,2-dihydro-indole-3,1′-cyclopropane]-1-yl]-pyrimidin-5-yl]-benzonitrile] | 0.1 to 1 µM |
| COc1cccc(-c2cnc(N3CC4(CC4)c4ccc(C(=O)N(C)CCO)cc43)nc2)n1 [Compound 211, N-(2-Hydroxy-ethyl)-1-[5-(6-methoxy-pyridin-2-yl)-pyrimidin-2-yl]-N-methyl-spiro[1,2-dihydro-indole-3,1′-cyclopropane]-6-carboxylic acid amide] | < 0.1 µM |
| N-(2-Hydroxy-ethyl)-1-[5-(3-methoxyphenyl)-pyrimidin-2-yl]-N-methyl-spiro[1,2-dihydro-indole-3,1′-cyclopropane]-6-carboxylic acid amide [Compound 197] | < 0.1 µM |
